From PubChem BioAssay AID2060897 (Molecular Pharmacology Branch, DTP, NCI, 2025) come the findings set out here.

The test relates to 966289-007-R4-J1-PDC complex spheroid viability. Nature of the test: Anticancer human tumor 966289-007-R4-J1-PDC patient-derived pancreatic adenocarcinoma cell line growth inhibition [RAS]. Conditions: for viability, T/C: stronger effect = lower value. The source says: RAS pathway inhibitors in Combinations in Complex Spheroids
A high-throughput screen of multi-cell type tumor spheroids was designed to identify active combinations of RAS pathway inhibitors and targeted small molecules. Complex spheroids include a stromal component modeled by human endothelial cells (HUVEC) and fibroblasts modeled by human mesenchymal stem cells (MSCs). The concentration ranges selected for each drug and investigational agent were based upon clinically achievable concentrations if the clinical Cmax of the agent was known.
Compounds. The drugs and investigational agents: abemaciclib (NSC768073), cobimetinib (NSC768068), divarasib (GDC6063, NSC841802), docetaxel (NSC628503), GDC-1971 (RLY-1971, NSC841576), gemcitabine (NSC613327), inavolisib (NSC800729), ipatasertib (NSC767898), KB-0742 (NSC834161), MRTX-1133 (NSC836407), osimertinib (NSC779217), RMC-4630 (NSC839698), RMC-6236 (NSC851965), RMC-6291 (NSC852671), Ro-3306 (NSC812927), sapanisertib (NSC764658), SN-38 (NSC673596), staurosporine (NSC755774), SY5609 (NSC837396), and tovorafenib (DAY101, NSC766906), were obtained from the National Cancer Institute (NCI) Developmental Therapeutics Program Chemical Repository. The FDA-approved anticancer drug set is available from the NCI Developmental Therapeutics Program. […] The stock solutions were prepared in dimethyl sulfoxide (DMSO, Sigma-Aldrich, St. Louis, MO, cat. D2650) at 800-fold the tested concentration and stored at -70 degrees C prior to their use. All drugs and investigational agents were tested over a range starting from a high concentration at or near the clinical Cmax and decreasing in half-log increments. If the clinical Cmax for an agent had not been determined, the highest concentration tested was 10 microM.
Cell Culture. All cells were maintained in an incubator at 37 degrees C and 5% CO2 with 95% humidity. The PDC lines were cultured according to standard operating procedures established by the NCI PDMR. All PDCs were thawed and cultured in Matrigel-coated flasks prepared with a working solution of 1X Ham's F-12 nutrient mix, without supplementation (Invitrogen, Waltham, MA, cat. 11765054), 100 U/mL penicillin-streptomycin (Invitrogen, cat. 15140122), and 2.5% Matrigel (Corning Inc., Corning, NY, cat. 354248) for the first three passages. The 362531-283-R-J2-PDC and 782815-120-R-J1-PDC lines were cultured in 6C/Colon 1B media, which includes advanced DMEM/F-12 (Thermo Fisher Scientific, cat. 12634028), 10 mM HEPES (Thermo Fisher Scientific, cat. 15630080), 1X GlutaMAX supplement (Thermo Fisher Scientific, cat. 35050061), 0.1 mg/mL primocin (InvivoGen, San Diego, CA, cat. ant-pm-2), 10% defined fetal bovine serum, heat inactivated (HyClone Laboratories Inc., Logan, UT, cat. SH30070.03HI), 50% L-WRN conditioned media (ATCC, cat. CRL-3276), 1.25 mM N-Acetyl-L-cysteine (Sigma-Aldrich, cat. A9165), 10 mM nicotinamide (Sigma-Aldrich, cat. N0636), 1X B-27 supplement (Thermo Fisher Scientific, cat. 17504044), 1X N-2 supplement (Thermo Fisher Scientific, cat. 17502048), 50 ng/mL human EGF (Thermo Fisher Scientific, cat. PHG0311), and 10 microM Y-27632 dihydrochloride (Tocris Bioscience, cat. 1254). The K12877-001-R-J1-PDC line was cultured in 6I media, which includes all 6C/Colon 1B media plus 10 ng/mL human FGF-10 (PeproTech, cat. 100-26), 1 ng/mL human FGF-2 (PeproTech, cat. 100-18B), 1 µM prostaglandin E2 (Tocris Bioscience, cat. 2296), […] hydrocortisone (Sigma-Aldrich, cat. H4001), and […] bovine insulin (Sigma-Aldrich, cat. I6634). The K86415-001-R-J1-PDC line was cultured in 6D media, which includes all 6C/Colon 1B media components minus the L-WRN conditioned media. The 485176-168-R4-J1-PDC was cultured in PANC media, which includes all 6C/Colon 1B media plus 100 ng/mL human FGF-10 (PeproTech, cat. 100-26), 500 nM SB-431542 (Selleckchem, cat. S1067), and 10 nM gastrin (Tocris Bioscience, cat. 3006). […]

Where [1] appears, read: compound alone, run of 06/10/2024.
Where [2] appears, read: compound alone, run of 05/20/2024.

Structures are written as SMILES. pIC50: −log10 of the molar value. Where “and” joins values, the source holds several entries; their conditions need not be identical. Equal entries are not always repeated. A value given as a limit tells only on which side of the number the result lay.
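Also: spheroids exposed to agents for one week before readout.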
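For viability, T/C in this document: percent viability relative to DMSO vehicle control wells as 100%.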

Take `C#Cc1c(F)ccc2cc(O)cc(-c3ncc4c(N5CC6CCC(C5)N6)nc(OCC56CCCN5CC(F)C6)nc4c3F)c12` (centres undefined): the viability, T/C (commonly the ratio of treated to control) is, setting by setting: (compound 0.316 µM) 114% [middle of 8 runs]; (compound 3.16 µM) 94.4% [middle of 8 runs]. Under setting [1], the pIC50 (as a rule, −log10 of the IC50, conventionally taken in molar units) was under 5.00.

Consider `C=CC(=O)N1CCN(c2nc(OCC3CCCN3C)nc3c(F)c(-c4nc(N)cc(C)c4C(F)(F)F)c(Cl)cc23)C(C)C1` (centres undefined), for which the pIC50 is, setting by setting: under setting [1], under 6.00; (curve of compound) under 6.00.

Regarding `C=CC(=O)Nc1cc(Nc2nccc(-c3cn(C)c4ccccc34)n2)c(OC)cc1N(C)CCN(C)C`, the viability, T/C (compound 0.0316 µM) is 100% [middle of 4 runs]. The pIC50 (curve of compound) was under 6.00.

`CC(=O)OC12COC1CC(O)C1(C)C(=O)C(O)C3=C(C)C(OC(=O)C(O)C(NC(=O)OC(C)(C)C)c4ccccc4)CC(O)(C(OC(=O)c4ccccc4)C21)C3(C)C` (centres undefined): the viability, T/C by setting is: (compound 0.0316 µM) 7.82% [middle of 4 runs]; (compound 0.1 µM) 14.1% [middle of 4 runs]; (compound 0.316 µM) 15.4% [middle of 4 runs]; (compound 1 µM) 19.7% [middle of 4 runs]; (compound 3.16 µM) 38.3% [middle of 4 runs]; (compound 10 µM) 67% [middle of 4 runs]. Further, where the note is “curve of compound”, the pIC50 is over 7.50.

Regarding `CC(C)NCC(C(=O)N1CCN(c2ncnc3c2C(C)CC3O)CC1)c1ccc(Cl)cc1` (centres undefined), the viability, T/C is, setting by setting: (compound 0.0316 µM) 105% [middle of 4 runs]; (compound 0.316 µM) 115% [middle of 4 runs]; (compound 1 µM) 105% [middle of 4 runs]; (compound 3.16 µM) 64% [middle of 4 runs]; (compound 10 µM) 34.2% [middle of 4 runs]. For the setting “curve of compound”, the IC50 – broadly, the concentration that gives 50% inhibition – is 5.43 µM [middle of 4 runs].

For `CC(C)n1nc(-c2ccc3oc(N)nc3c2)c2c(N)ncnc21`, the viability, T/C (compound 0.0316 µM) was 52.2% [middle of 4 runs] and the viability, T/C (compound 0.1 µM) is 18.5% [middle of 4 runs]. The IC50 (curve of compound) was 33.4 nM [middle of 4 runs].

`CC(Nc1ccc2c(c1)OCCn1cc(N3C(=O)OCC3C(F)F)nc1-2)C(N)=O` (centres undefined): the viability, T/C is, setting by setting: (compound 0.316 µM) 101% (2×) and 121% and 106%; (compound 10 µM) 87.9% [middle of 4 runs]. In addition, the pIC50 (curve of compound) is under 5.00.

With `CC1(C)CCC(Nc2ncc(C(F)(F)F)c(-c3c[nH]c4c(P(C)(C)=O)c(C#N)ccc34)n2)CN1` (centres undefined), the viability, T/C is 15.1% [middle of 4 runs] (compound 0.03 µM), 10.5% [middle of 4 runs] (compound 0.0949 µM) and 8.72% [middle of 4 runs] (compound 0.3 µM).

On to `CC1(O)CCCC1n1c(=O)c(C(F)F)cc2cnc(NC3CCN(S(C)(=O)=O)CC3)nc21` (centres undefined), for which the viability, T/C by setting is: (compound 0.1 µM) 56.9% [middle of 4 runs]; (compound 0.316 µM) 27.7% [middle of 4 runs]; (compound 1 µM) 31.8% [middle of 4 runs]; (compound 3.16 µM) 28.4% [middle of 4 runs]; (compound 10 µM) 4.66% [middle of 4 runs]. The IC50 (curve of compound) is 145 nM [middle of 4 runs].

As for `CCC(CC)c1cc(NC2CCC(N)C2)n2nccc2n1` (centres undefined), the viability, T/C is, setting by setting: (compound 0.1 µM) 92.7% [middle of 4 runs]; (compound 0.316 µM) 109% [middle of 4 runs]; (compound 3.16 µM) 2.28% [middle of 4 runs]; (compound 10 µM) 2.13% [middle of 4 runs]. Also, the concentration for half-maximal inhibition (IC50) (curve of compound) is 1.86 µM [middle of 4 runs].

For the compound `CCN1CCN(Cc2ccc(Nc3ncc(F)c(-c4cc(F)c5nc(C)n(C(C)C)c5c4)n3)nc2)CC1`, the viability, T/C was 113% [middle of 4 runs] (compound 0.00316 µM), 100% [middle of 4 runs] (compound 0.01 µM), 94.4% [middle of 4 runs] (compound 0.316 µM) and 84% [middle of 4 runs] (compound 1 µM). Besides, for the setting “curve of compound”, the negative logarithm of the IC50 (pIC50) is under 6.00.

Take `CCc1c2c(nc3ccc(O)cc13)-c1cc3c(c(=O)n1C2)COC(=O)[C@]3(O)CC`: the viability, T/C is 2.73% [middle of 4 runs] (compound 0.003 µM); 1.18% [middle of 4 runs] (compound 0.00949 µM); 0.96% [middle of 4 runs] (compound 0.03 µM); 0.88% [middle of 4 runs] (compound 0.0949 µM); 0.94% [middle of 4 runs] (compound 0.3 µM). For the same compound, the 50% inhibitory concentration (IC50) (curve of compound) was 1.62 nM [middle of 4 runs].

Take `CCn1c(-c2cc(N3CCN(C)CC3)cnc2C(C)OC)c2c3cc(ccc31)-c1csc(n1)CC(NC(=O)C1CC1C)C(=O)N1CCCC(N1)C(=O)OCC(C)(C)C2` (centres undefined): the viability, T/C (compound 0.000949 µM) is 97.8% [middle of 8 runs]. Also, under setting [2], the pIC50 is under 6.52.

Take `CCn1c(-c2cccnc2C(C)OC)c2c3cc(ccc31)N1CCOC(CC(NC(=O)C(C(C)C)N(C)C(=O)C3(F)CCN(C(=O)C#CC(C)(C)N(C)C)CC3)C(=O)N3CCCC(N3)C(=O)OCC(C)(C)C2)C1` (centres undefined): the viability, T/C (compound 0.0949 µM) was 83.6% [middle of 8 runs]. Moreover, under setting [2], the pIC50 is under 6.52.

Take `C[C@@H](NC(=O)c1ncnc(N)c1Cl)c1ncc(C(=O)Nc2cc(C(F)(F)F)c(Cl)cn2)s1`: the viability, T/C reads like this: (compound 0.0316 µM) 106% [middle of 4 runs]; (compound 10 µM) 99.5% [middle of 4 runs]. The pIC50 (curve of compound) was under 5.00.

Consider `Cc1nc(N2CCC3(CC2)COC(C)C3N)c(CO)nc1Sc1ccnc(N)c1Cl` (centres undefined), for which the viability, T/C (compound 0.316 µM) was 108% [middle of 4 runs]; the viability, T/C (compound 1 µM) was 102% (2×) and 73.6% and 119%; the viability, T/C (compound 10 µM) is 95.5% [middle of 4 runs]. In addition, the pIC50 (curve of compound) is under 5.00.

Turning to `NC1c2ccccc2OC12CCN(c1cnc3c(N4CCCc5ncccc54)n[nH]c3n1)CC2` (centres undefined), the viability, T/C was 92.9% [middle of 4 runs] (compound 0.1 µM); 107% [middle of 4 runs] (compound 0.316 µM); 116% and 63.2% and 101% (2×) (compound 1 µM); 99.6% [middle of 4 runs] (compound 10 µM). Under “curve of compound”, the pIC50 is under 5.00.

On to `Nc1ccn(C2OC(CO)C(O)C2(F)F)c(=O)n1` (centres undefined), for which the viability, T/C runs as follows: (compound 0.00316 µM) 100% and 92.9% and 103% (2×); (compound 0.01 µM) 30.1% [middle of 4 runs]; (compound 0.0316 µM) 1.12% and 1.45% (2×) and 1.74%; (compound 0.1 µM) 1.25% [middle of 4 runs]; (compound 0.316 µM) 0.85% and 1.16% and 1.48%; (compound 1 µM) 1.33% [middle of 4 runs]. Moreover, where the note is “curve of compound”, the half-inhibitory concentration (IC50) is 7.29 nM [middle of 4 runs].

For `O=C(c1ccc(F)c(F)c1Nc1ccc(I)cc1F)N1CC(O)([C@@H]2CCCCN2)C1`, the viability, T/C runs as follows: (compound 0.00316 µM) 90.5% [middle of 4 runs]; (compound 0.01 µM) 97.5% [middle of 4 runs]; (compound 0.0316 µM) 90.4% [middle of 4 runs]; (compound 0.1 µM) 75.8% [middle of 4 runs]; (compound 0.316 µM) 68.9% [middle of 4 runs].
